From patent publication US20260201008A1, “SECRETIN-DERIVED GLP1R SELECTIVE AGONISTS” (GUBRA A/S, priority 2023, published 2026) come the findings set out here.

One data set concerns the target GLP1R (Homo sapiens, UniProt P43220). In words: hGLP1R potency, cAMP accumulation in CHO-K1 cells stably overexpressing hGLP1R. Format: cell-based. Also noted: host or cells: CHO-K1. The following applies: for Selectivity: SCTR EC50/GLP1R EC50 ratio. An outline of the steps: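 Potency reflects cAMP accumulation measured by time-resolved fluorescence energy transfer after a 30 min room-temperature stimulation in IBMX-containing (0.5 mM) DPBS with casein. Purified peptides were tested in duplicate over eleven threefold dilutions, and EC50 was obtained from sigmoid concentration-response fitting.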
(In general: Cyclic AMP is a second messenger, typically raised through Gs and lowered through Gi signalling.)

Data set [1] is described as follows: Solubility of purified peptides. It counts as physicochemical. The following applies: 100 mM phosphate buffer, target pH 7.0, target approximately 10 mg/mL. On the procedure:
Solubility was tested in the following vehicles: 100 mM phosphate buffer facilitating a target pH of 7.0. Samples were directly dissolved in Mini-UniPrep Syringeless Filter 0.45 μm unit (Whatman). For the desired concentration, such as a concentration of approximately 10 mg/mL, 1050 nmol of peptide was dissolved in 400 μL vehicle. Samples were incubated for at least 1 h at room temperature on a rocking table. The pH was measured and adjusted. Samples were left on the rocking table for an additional hour before a second pH measurement and adjustment. Visual inspection was performed and noted before the filter was pushed. The concentration of peptide in the filtrate was determined using CAD (Charged Aerosol Detection), double determination was done for each sample. The measured concentration was reported in μM. Furthermore, the pH of the filtrate was measured and reported. Peptides with a measured concentration within +/−20% of target concentration are considered fully soluble.

The target in the next data set is SCTR (Homo sapiens, UniProt P47872). As to the kind of experiment: hSCTR potency, cAMP accumulation in CHO-K1 cells stably overexpressing hSCTR. Also on record: alternatively Euroscreen ES-712-AF; FAST-0161L; host or cells: CHO-K1. It counts as cell-based. The method, boiled down:
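Potency reflects cAMP accumulation after 30 min agonist exposure at room temperature in hSCTR-expressing CHO-K1 cells, with 0.5 mM IBMX present to block phosphodiesterase. EC50 was derived by nonlinear regression.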

A short description of data set [2]: Thioflavin T fibril formation assay of purified peptides. Format: physicochemical. The settings on record: 267 μM, phosphate buffer pH 7.0, 96 h at 40° C. On the procedure: Thioflavin T fibril formation assay: Peptides are dissolved as 267 μM in 50 mM phosphate buffer pH 7.0 for 2 h at room temperature on a rocking table. The samples were then divided into three replicates of 80 μl/well and mixed with 2 μl/well Thioflavin T (ThT) to a final concentration of 4 μM ThT in a black 384 well microplate with a clear bottom (Greiner #781096). The plate is inserted in a CLARIOstar Plus microplate reader (BMG Labtech) and fibril formation is measured as an increase in fluorescence emission at 480 nm (excitation at 450 nm) during 96 h at 40° C. with cycles of 5 min rest and 5 min linear shaking at 700 rpm.

[3] abbreviates: Table 2, extended 30 amino acid peptides.
Setting [4] is: Table 2, extended 30 amino acid peptides, read-out: PEC50 hGLPR1 (converted).
The mark [5] stands for this setting: Table 2, extended 30 amino acid peptides, read-out: pEC50 hSCTR (converted).

Values after ≈ are worked out from the molar mass of the structure shown. Where two headings read alike, the source gives them in different places. Numbered stars: 1 amine (or outer) side, 2 acyl side, 3 side chain; on linkers, the order of the positions; unused ones are H or OH. Square brackets hold non-standard residues; d marks the D form. Side chains are listed from the residue outwards. Peptide text beside a SMILES is read from it. * marks the point of attachment. C20 diacid = O=C(O)CCCCCCCCCCCCCCCCCCC(=O)*; γGlu = O=C(O)[C@H](CCC(=O)[*:2])N[*:1]; AEEA = NCCOCCOCC(=O)O; Aib = CC(C)(N)C(=O)O

Chain of GLP1R (P43220 24-463): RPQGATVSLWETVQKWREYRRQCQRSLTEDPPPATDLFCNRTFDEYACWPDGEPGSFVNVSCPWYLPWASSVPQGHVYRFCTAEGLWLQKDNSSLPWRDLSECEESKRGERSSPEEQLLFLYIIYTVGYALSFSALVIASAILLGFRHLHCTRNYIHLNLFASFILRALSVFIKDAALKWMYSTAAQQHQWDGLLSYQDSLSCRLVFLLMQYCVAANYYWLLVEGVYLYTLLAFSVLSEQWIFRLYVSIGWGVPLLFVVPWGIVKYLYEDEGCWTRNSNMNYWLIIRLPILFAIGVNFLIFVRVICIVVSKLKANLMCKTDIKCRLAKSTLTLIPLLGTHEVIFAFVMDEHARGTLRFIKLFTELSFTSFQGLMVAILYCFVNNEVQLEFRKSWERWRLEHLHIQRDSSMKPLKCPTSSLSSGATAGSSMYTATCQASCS
Chain of SCTR (P47872 23-440): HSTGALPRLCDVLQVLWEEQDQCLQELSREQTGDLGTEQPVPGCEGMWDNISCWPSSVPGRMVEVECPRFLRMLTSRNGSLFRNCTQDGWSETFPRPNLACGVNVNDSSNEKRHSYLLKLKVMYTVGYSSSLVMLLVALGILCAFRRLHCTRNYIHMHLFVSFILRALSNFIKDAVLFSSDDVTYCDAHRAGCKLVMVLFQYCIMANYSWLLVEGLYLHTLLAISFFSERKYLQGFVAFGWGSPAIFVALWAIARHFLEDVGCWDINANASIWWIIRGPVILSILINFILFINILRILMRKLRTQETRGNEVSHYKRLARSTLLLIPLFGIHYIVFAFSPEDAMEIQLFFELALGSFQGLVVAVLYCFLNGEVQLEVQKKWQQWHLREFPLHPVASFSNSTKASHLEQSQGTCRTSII

Turning to `CC(C)C[C@H](NC(=O)[C@H](Cc1ccccc1)NC(=O)[C@H](CCCNC(=N)N)NC(=O)[C@H](CCC(N)=O)NC(=O)[C@H](CC(C)C)NC(=O)C(C)(C)NC(=O)[C@H](C)NC(=O)[C@H](CCC(=O)O)NC(=O)[C@H](CCC(=O)O)NC(=O)[C@H](CCCCNC(=O)COCCOCCNC(=O)COCCOCCNC(=O)CC[C@H](NC(=O)CCCCCCCCCCCCCCCCCCC(=O)O)C(=O)O)NC(=O)[C@H](CC(C)C)NC(=O)[C@H](Cc1ccc(O)cc1)NC(=O)[C@H](CO)NC(=O)[C@@H](NC(=O)[C@H](CC(=O)O)NC(=O)[C@H](CO)NC(=O)[C@@H](NC(=O)[C@H](Cc1ccccc1)NC(=O)[C@@H](NC(=O)CNC(=O)[C@H](CCC(=O)O)NC(=O)C(C)(C)NC(=O)[C@@H](N)Cc1c[nH]cn1)[C@@H](C)O)[C@@H](C)O)C(C)C)C(=O)N[C@@H](CCC(=O)O)C(=O)N[C@@H](Cc1c[nH]cn1)C(=O)N[C@@H](CC(C)C)C(=O)N[C@H](C(N)=O)C(C)C` [compound 203] (H-H[Aib]EGTFTSDVSYLK([AEEA-AEEA-γGlu-C20 diacid])EEA[Aib]LQRFLEHLV-NH2), the Selectivity on GLP1R (purified peptides) is listed as 11176. The EC50 at GLP1R (cAMP accumulation, CHO-K1 cells stably overexpressing hGLP1R, read-out: hGLP1R potency (pEC50) (converted)) is 0.02 nM; at SCTR (cAMP accumulation, CHO-K1 cells stably overexpressing hSCTR, read-out: hSCTR potency (pEC50) (converted)) it was 200 nM; at SCTR (purified peptides, read-out: hSCTR pEC50 (converted)), 200 nM. The “SCTR EC50/GLP1R EC50 ratio” value on GLP1R (selectivity ratio, hSCTR vs hGLP1R, cAMP accumulation in CHO-K1 cells) is 10000. Further, in data set [1], the solubility (usually the dissolved amount per volume that the medium holds) stood at 9800 µg/mL (≈ 2540 µM). For the same molecule, the Fibril formation result in data set [2] is “No”.

`CC(C)C[C@H](NC(=O)[C@H](Cc1ccccc1)NC(=O)[C@H](CCCNC(=N)N)NC(=O)[C@H](CCC(N)=O)NC(=O)[C@H](CC(C)C)NC(=O)C(C)(C)NC(=O)[C@H](C)NC(=O)[C@H](CCC(=O)O)NC(=O)[C@H](CCC(=O)O)NC(=O)[C@H](CCCCNC(=O)COCCOCCNC(=O)COCCOCCNC(=O)CC[C@H](NC(=O)CCCCCCCCCCCCCCCCCCC(=O)O)C(=O)O)NC(=O)[C@H](CC(C)C)NC(=O)[C@H](Cc1ccc(O)cc1)NC(=O)[C@H](CO)NC(=O)[C@@H](NC(=O)[C@H](CC(=O)O)NC(=O)[C@H](CO)NC(=O)[C@@H](NC(=O)[C@H](Cc1ccccc1)NC(=O)[C@@H](NC(=O)CNC(=O)[C@H](CCC(=O)O)NC(=O)C(C)(C)NC(=O)[C@@H](N)Cc1c[nH]cn1)[C@@H](C)O)[C@@H](C)O)C(C)C)C(=O)N[C@@H](CCC(=O)O)C(=O)N[C@@H](Cc1c[nH]cn1)C(=O)N[C@@H](CC(C)C)C(=O)N[C@H](C(=O)N[C@@H](CCC(=O)O)C(=O)N[C@@H](C)C(=O)N[C@@H](C)C(N)=O)C(C)C` [compound 209] (H-H[Aib]EGTFTSDVSYLK([AEEA-AEEA-γGlu-C20 diacid])EEA[Aib]LQRFLEHLVEAA-NH2): the Selectivity on GLP1R (setting [3]) stood at 34167; at GLP1R (purified peptides), 33673. Also, the EC50 on GLP1R (setting [4]) was 0.0126 nM; on SCTR (setting [5]), 398 nM. The molecule also registered a solubility in data set [1] of 11000 µg/mL (≈ 2660 µM). The Fibril formation entry in data set [2] is listed as “No”.

Regarding `CC(C)C[C@H](NC(=O)[C@H](CC(C)C)NC(=O)[C@H](CCCNC(=N)N)NC(=O)[C@H](CO)NC(=O)[C@@H](NC(=O)[C@H](CC(=O)O)NC(=O)[C@H](CO)NC(=O)[C@@H](NC(=O)[C@H](Cc1ccccc1)NC(=O)[C@@H](NC(=O)CNC(=O)[C@H](CCC(=O)O)NC(=O)C(C)(C)NC(=O)[C@@H](N)Cc1c[nH]cn1)[C@@H](C)O)[C@@H](C)O)C(C)C)C(=O)N[C@@H](CCC(=O)O)C(=O)N[C@@H](CCC(=O)O)C(=O)N[C@@H](C)C(=O)NC(C)(C)C(=O)N[C@@H](CC(C)C)C(=O)N[C@@H](CCC(N)=O)C(=O)N[C@@H](CCCNC(=N)N)C(=O)N[C@@H](Cc1ccccc1)C(=O)N[C@@H](CC(C)C)C(=O)N[C@@H](CCC(=O)O)C(=O)N[C@@H](CCCCNC(=O)COCCOCCNC(=O)COCCOCCNC(=O)CC[C@H](NC(=O)CCCCCCCCCCCCCCCCCCC(=O)O)C(=O)O)C(=O)N[C@@H](CC(C)C)C(=O)N[C@H](C(=O)N[C@@H](CCC(=O)O)C(=O)N[C@@H](C)C(=O)N[C@@H](C)C(N)=O)C(C)C` [compound 212] (H-H[Aib]EGTFTSDVSRLLEEA[Aib]LQRFLEK([AEEA-AEEA-γGlu-C20 diacid])LVEAA-NH2), the Selectivity at GLP1R (setting [3]) is recorded as 2864; at GLP1R (purified peptides) it was 2857. Also, the EC50 at GLP1R (setting [4]) was 0.02 nM; at SCTR (setting [5]), 63.1 nM. Besides, the solubility in data set [1] came out at 8400 µg/mL (≈ 2050 µM). Besides, in data set [2], the Fibril formation result is given as “No”.

In the case of `CC(C)C[C@H](NC(=O)[C@H](CC(C)C)NC(=O)[C@H](Cc1ccc(O)cc1)NC(=O)[C@H](CO)NC(=O)[C@@H](NC(=O)[C@H](CC(=O)O)NC(=O)[C@H](CO)NC(=O)[C@@H](NC(=O)[C@H](Cc1ccccc1)NC(=O)[C@@H](NC(=O)CNC(=O)[C@H](CCC(=O)O)NC(=O)C(C)(C)NC(=O)[C@@H](N)Cc1c[nH]cn1)[C@@H](C)O)[C@@H](C)O)C(C)C)C(=O)N[C@@H](CCC(=O)O)C(=O)N[C@@H](CCC(=O)O)C(=O)N[C@@H](C)C(=O)NC(C)(C)C(=O)N[C@@H](CC(C)C)C(=O)N[C@@H](CCC(N)=O)C(=O)N[C@@H](CCCNC(=N)N)C(=O)N[C@@H](Cc1ccccc1)C(=O)N[C@@H](CC(C)C)C(=O)N[C@@H](CCC(=O)O)C(=O)N[C@@H](CCCCNC(=O)COCCOCCNC(=O)COCCOCCNC(=O)CC[C@H](NC(=O)CCCCCCCCCCCCCCCCCCC(=O)O)C(=O)O)C(=O)N[C@@H](CC(C)C)C(=O)N[C@H](C(=O)N[C@@H](CCC(=O)O)C(=O)N[C@@H](C)C(=O)N[C@@H](C)C(N)=O)C(C)C` [compound 213] (H-H[Aib]EGTFTSDVSYLLEEA[Aib]LQRFLEK([AEEA-AEEA-γGlu-C20 diacid])LVEAA-NH2), the Selectivity on GLP1R (setting [3]) was determined as 54706; on GLP1R (purified peptides), 63571. Besides, the EC50 was 0.0158 nM on GLP1R (setting [4]) and 1000 nM at SCTR (setting [5]). In data set [1], this molecule gave a solubility of 8200 µg/mL (≈ 2000 µM). In addition, the Fibril formation result in data set [2] is on record as “No”.
